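Compound exposure: 48 hours, 5 concentrations, 96-well plates. GI50 marks 50% less growth. TGI: concentration producing complete growth inhibition.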
test system: U251 CNS; experiment: inhibition of tumour cell growth, NCI panel, 48 h

`CC1=C(C(=O)Nc2ccc(F)c(Cl)c2)C(c2ccc(Cl)cc2)NC(=O)N1` (centres undefined) and `COc1ccc(C2=CSc3cc(Cl)c(C)cc3S(=O)(=O)N2C(C)=O)cc1` are within 1.5-fold of each other in GI50: 16.7 µM for the first, 21.2 µM for the second.

`CC(=O)[O][Hg][c]1c(N)c(C)cc(C)c1F` was tested, and the GI50 was 0.672 µM.

Compared with `CC1=C(C(=O)Nc2ccc(F)c(Cl)c2)C(c2ccc(Cl)cc2)NC(=O)N1` (centres undefined), `O=C(O)C(Cc1ccccc1)N1C(=O)N/C(=C\c2ccc(F)cc2)C1=O` (centres undefined) is higher in TGI: 33.2 µM for the first, over 100 µM for the second.

Going from `CCOC(=O)C(Sc1ccccc1)c1c(OC)cc(=O)oc1/C=[N+](/[O-])c1ccc(N(C)C)cc1` (centres undefined) to `COc1ccc2nc3cc(Cl)ccc3c(Sc3ccccc3[N+](=O)[O-])c2c1`, the TGI rises from 60.7 µM to over 100 µM.

`COc1ccccc1NC(=O)CC(=O)n1nc(C)c(N=Nc2ccccc2C(=O)O)c1C` and `COc1cccc(NC(=O)CC(=O)n2nc(C)c(N=Nc3ccccc3)c2C)c1` cannot be ordered by TGI: over 100 µM for the first, over 100 µM for the second.

First: COc1ccc(C2=CSc3cc(Cl)c(C)cc3S(=O)(=O)N2C(C)=O)cc1
Second: CC(=O)OC1COC(n2c(=S)n(-c3ccc(C)cc3)c(=O)c3ccccc32)C(OC(C)=O)C1OC(C)=O (centres undefined)
The TGI of the first is lower: 55.8 µM for the first, over 100 µM for the second.

Compared with `CC(=O)[O][Hg][c]1c(N)c(C)cc(C)c1F`, `O=C(O)CCSC(=O)Nc1cccc(F)c1` is higher in TGI: 2.06 µM for the first, over 100 µM for the second.

test system: UACC-257 melanoma; experiment: inhibition of tumour cell growth, NCI panel, 48 h

Compared with `NC(CSC(c1ccccc1)(c1ccccc1)c1ccc2c(c1)OCO2)C(=O)O` (centres undefined), `O=C(NCCNc1nccc(-c2c(-c3cccc(O)c3)nc3sccn23)n1)c1ccccc1O` is 5.3-fold lower in GI50: 2.52 µM for the first, 0.473 µM for the second.

Compared with `C[C@@H](CS(C)(=O)=O)Nc1ncc2cc(Oc3ccc(F)cc3F)c(=O)n(C)c2n1`, `CNC(=O)c1ccccc1Nc1nc(Nc2ccc(N3CCOCC3)cc2OC)ncc1Cl` is lower in GI50: over 25 µM for the first, 0.421 µM for the second.

Going from `COc1cc2c(c(OC)c1O)C(=O)C(OC)C(c1ccc(O)c(O)c1)O2` (centres undefined) to `COc1ccc(C2=CSc3cc(Cl)c(C)cc3S(=O)(=O)N2C(C)=O)cc1`, the GI50 falls from over 100 µM to 36.2 µM.

`Cn1ccnc1C(=O)/C=C/c1ccc(CC(=O)Nc2ccc(Br)cc2)cc1` and `CC1=C(C(=O)Nc2ccc(F)c(Cl)c2)C(c2ccc(Cl)cc2)NC(=O)N1` (centres undefined) are within 1.5-fold of each other in GI50: 15.6 µM for the first, 19.4 µM for the second.

First: COC(=O)[C@@H](C)C[C@H](Cc1ccc(F)cc1)NC(=O)c1csc([C@@H](C[C@H](C(C)C)N(C)C(=O)[C@@H](NC(=O)[C@H]2CCCCN2C)C(C)C)OC(C)=O)n1
Second: CNC(=O)c1cc(Oc2ccc3nc(NC(=O)Nc4ccc(Cl)c(C(F)(F)F)c4)sc3c2)ccn1
The GI50 of the first is higher: over 16.7 µM for the first, 3.37 µM for the second.

First: Oc1ccc(Cl)cc1-c1cc(-c2ccccc2Cl)[nH]n1
Second: CC(=O)[O][Hg][c]1c(N)c(C)cc(C)c1F
The GI50 of the first is 20-fold higher: 30.8 µM for the first, 1.51 µM for the second.

`NC(CSC(c1ccccc1)(c1ccccc1)c1ccc2c(c1)OCO2)C(=O)O` (centres undefined) and `O=C(O)C(Cc1ccccc1)N1C(=O)N/C(=C\c2ccc(F)cc2)C1=O` (centres undefined) cannot be ordered by TGI: over 100 µM for the first, over 100 µM for the second.

`C=CCc1cc(OC)c2c(c1)C(O)CC(c1ccc(OC)c(OC)c1)O2` (centres undefined) and `COc1cc2c(c(OC)c1O)C(=O)C(OC)C(c1ccc(O)c(O)c1)O2` (centres undefined) cannot be ordered by TGI: over 100 µM for the first, over 100 µM for the second.

Going from `O=C(NCCNc1nccc(-c2c(-c3cccc(O)c3)nc3sccn23)n1)c1ccccc1O` to `CNC(=O)c1ccccc1Nc1nc(Nc2ccc(N3CCOCC3)cc2OC)ncc1Cl`, the TGI rises from 11.2 µM to over 100 µM.

`C[C@@H](CS(C)(=O)=O)Nc1ncc2cc(Oc3ccc(F)cc3F)c(=O)n(C)c2n1` and `CNC(=O)c1cc(Oc2ccc3nc(NC(=O)Nc4ccc(Cl)c(C(F)(F)F)c4)sc3c2)ccn1` cannot be ordered by TGI: over 25 µM for the first, over 100 µM for the second.

`Cn1ccnc1C(=O)/C=C/c1ccc(CC(=O)Nc2ccc(Br)cc2)cc1` and `COc1cccc(NC(=O)CC(=O)n2nc(C)c(N=Nc3ccccc3)c2C)c1` cannot be ordered by TGI: over 16.7 µM for the first, over 100 µM for the second.

`COC(=O)[C@@H](C)C[C@H](Cc1ccc(F)cc1)NC(=O)c1csc([C@@H](C[C@H](C(C)C)N(C)C(=O)[C@@H](NC(=O)[C@H]2CCCCN2C)C(C)C)OC(C)=O)n1` and `COc1ccccc1NC(=O)CC(=O)n1nc(C)c(N=Nc2ccccc2C(=O)O)c1C` cannot be ordered by TGI: over 16.7 µM for the first, over 100 µM for the second.

Compared with `N#CC(C#N)=c1ccc(=C2NCC3CCCN23)cc1` (centres undefined), `CC1=C(C(=O)Nc2ccc(F)c(Cl)c2)C(c2ccc(Cl)cc2)NC(=O)N1` (centres undefined) is lower in TGI: over 100 µM for the first, 38.6 µM for the second.

`CCOC(=O)COc1cccc2c1C(=O)CCO2` and `CCOC(=O)C1=C(C)CC2C(=O)OC(=O)C2C1(C)C` (centres undefined) cannot be ordered by TGI: over 100 µM for the first, over 100 µM for the second.

First: CN(CC(=O)O)S(=O)(=O)c1ccc2ccccc2c1
Second: CCOC(=O)C(Sc1ccccc1)c1c(OC)cc(=O)oc1/C=[N+](/[O-])c1ccc(N(C)C)cc1 (centres undefined)
The TGI of the first is higher: over 100 µM for the first, 28.7 µM for the second.

`O=[S@@]1Nc2ccc(Br)cc2S1` and `C/C(CCn1[nH]c(=O)ccc1=O)=N\O` cannot be ordered by TGI: over 100 µM for the first, over 100 µM for the second.

`COc1ccc2c(c1)C1(C=N2)CCN(C(C)=O)CC1` and `COc1ccc(C2=CSc3cc(Cl)c(C)cc3S(=O)(=O)N2C(C)=O)cc1` cannot be ordered by TGI: over 100 µM for the first, over 100 µM for the second.

`O=C1NC2(CCCCC2)C2CCCCC(O)C12` (centres undefined) and `CC(=O)OC1COC(n2c(=S)n(-c3ccc(C)cc3)c(=O)c3ccccc32)C(OC(C)=O)C1OC(C)=O` (centres undefined) cannot be ordered by TGI: over 100 µM for the first, over 100 µM for the second.

`Oc1ccc(Cl)cc1-c1cc(-c2ccccc2Cl)[nH]n1` and `COc1ccc2nc3cc(Cl)ccc3c(Sc3ccccc3[N+](=O)[O-])c2c1` cannot be ordered by TGI: over 100 µM for the first, over 100 µM for the second.

`CC(=O)N1[C@H](C(=O)O)CS[C@H]1c1ccncc1` and `O=C(O)CCSC(=O)Nc1cccc(F)c1` cannot be ordered by TGI: over 100 µM for the first, over 100 µM for the second.

`CC(=O)[O][Hg][c]1c(N)c(C)cc(C)c1F` was tested, and the TGI was 2.96 µM.

From PubChem BioAssay (NCI)
